The values below are quoted from earlier work in patent US20070185035A1, “ENHANCED MUCOSAL ADMINISTRATION OF NEUROPROTECTIVE PEPTIDES” (Nastech Pharmaceutical Company Inc., priority 2005, published 2007).

One data set relates to ciliary motility. Conditions: without obvious ultrastructural lesions.
The conditions of data set [1]: anesthetized rats.

Like-named read-outs stand apart in the source and are kept apart here.

Regarding “2-alkyl-4-hydroxyquinolines [pyo compound]”, the concentration producing ciliostasis in the data set on ciliary motility was 50 µg/mL. Consider `CC(C)CC(N)B(O)O` (centres unmarked) [boro-leucine], for which, in the data set on aminopeptidases, the “effectiveness in enzyme inhibition relative to bestatin” value was “more than 100 times” and the “effectiveness in enzyme inhibition relative to puromycin” value is “more than 1000 times”.

As to “human growth hormone: human growth hormone given nasally to rats with or without N-acetyl-L-cysteine”, the nasal bioavailability is reported as 12.2% in data set [1] (with N-acetyl-L-cysteine (ACS)) and 7.5% in data set [1] (without N-acetyl-L-cysteine).
